Measurements taken from patent US6815546B2, “Analogues of camptothecin, their use as medicaments and the pharmaceutical compositions containing them” (Societe de Recherches et d'Applications Scientifiques …, priority 1995, dated 2004).

Legend:
Type in all cases: cell-based
[1] = test system: U373 (human glioblastoma); test: Test on cell proliferation (MTT test), U373; conditions: 72 hours
Description: (§1) a. Eight tumoral cell lines are used in this study: L1210 (mouse lymphocytic leukemia), HCT15 and LOVO (cell lines of human colon adenocarcinoma), A549 (human lung carcinoma), A172, U373 et U87 (human glioblastoma). All these lines are obtained from the American Type Culture Collection (ATCC), Rockville, Md. The L1210 cell cultures in suspension are cultured in Dulbecco's modified Eagle's medium (DMEM) (BioWhitaker, Verviers, Belgium) together with 10% of foetal calf serum inactivated by heating, 2 mM of glutamine, 50 μg/ml of penicillin and 50 μg/ml of streptomycin. The HT29 cells are cultured in mono-layer cultures in a McCoy 5a medium (Gibco, Paisley, United Kingdom) together with 10% of foetal calf serum inactivated by heat plus 2 mM of glutamine and 50 μg/ml of gentamycin. The other cells are cultured in an Earle's modified essential medium (EMEM; Gibco, Paisley, United Kingdom) together with 5% foetal calf serum inactivated by heat, 2 mM of glutamine, 50 U/ml of penicillin and 50 μg/ml of streptomycin. All the cell lines are cultured at 37° C. in a humidified atmosphere containing 95% air and 5% CO2.
(§2) Inhibition of the tumor cell line proliferation is determined using an MTT test. 1500 L1210 cells in a culture medium (according to the needs of the cell medium) are seeded in a well of a micro-well plate (tissue culture level: 96 wells, flat bottom) 24 hours before treatment with the compounds to be tested. For these dose-response studies, the cells are incubated with each of the compounds to be tested or their corresponding solvent (controls) for 48 hours over a final concentration range of 1.10^−10 to 1.10^−4 M. All the compounds are dissolved just before use in dimethylsulphoxide (DMSO) at a concentration of 50 mM. Other dilutions of the medicaments are carried out in the culture medium. The final concentration of DMSO never exceeds 0.2% (v/v). As controls, the solutions of medicaments are replaced with the solvent which is diluted successively in the same way as the compounds to be tested.
(§3) After the incubation period, the labeling reagent MTT (3-[4,5-dimethylthiazol-2-yl]-2,5-diphenyltetrazolium bromide; Thiazol blue, Sigma M 565, Sigma, St Louis, Mo.) is added at a final concentration of 0.3 mg/ml to each well. The cells are incubated for 4 hours at 37° C. in a humidified atmosphere. This stage allows the mitochondrial dehydrogenase of the living cells to convert the yellow tetrazolium salt MTT into crimson formazan crystals. The supernatant part is eliminated and the formazan crystals formed are solubilized with DMSO. The resultant coloured solution is quantified by absorbance at 570 nm by using a multi-cuvette scanning spectrophotometer. The data concerning the proliferation is expressed as a percentage of living cells in the treated wells, divided by the living cells in the controls. Each point represents the average of three independent experiments, each experiment represents six determinations.
(§4) For the other cell lines (HCT15, LOVO, A549, A172, U373, U87), 1000 to 2000 cells are seeded in the well of a micro-well plate 24 hours before medicinal treatment. […]
(§5) The results are expressed as percentages of the calculated proliferation by the optical density (OD) of the cells treated with a medicament divided by the OD of the control cells (cells treated with DMSO). As represented in Table II, the compounds to be tested have inhibited the proliferation of cells in a dose-dependent manner.

[2] = test system: A549 (human lung carcinoma); test: Test on cell proliferation (MTT test), A549; conditions: 72 hours
Description: as §1, §2, §3, §4, §5

[3] = test system: LOVO (cell lines of human colon adenocarcinoma); test: Test on cell proliferation (MTT test), LOVO; conditions: 72 hours
Description: as §1, §2, §3, §4, §5

[4] = test system: L1210 (mouse lymphocytic leukemia); test: Test on cell proliferation (MTT test), L1210; conditions: 48 hours
Description: as §1, §2, §3, §5

[5] = test system: A172 (human glioblastoma); test: Test on cell proliferation (MTT test), A172; conditions: 72 hours
Description: as §1, §2, §3, §4, §5

[6] = test system: U87 (human glioblastoma); test: Test on cell proliferation (MTT test), U87; conditions: 72 hours
Description: as §1, §2, §3, §4, §5

[7] = test system: HCT15 (cell lines of human colon adenocarcinoma); test: Test on cell proliferation (MTT test), HCT15; conditions: 72 hours
Description: as §1, §2, §3, §4, §5

CCc1c2c(nc3ccccc13)-c1cc(C(O)(CC)CC(=O)O)c(CO)c(=O)n1C2 (stereo not shown) [Example 10, 3-[12-ethyl-8-(hydroxymethyl)-9-oxo-9,11-dihydroindolizino[1,2-b]quinolin-7-yl]-3-hydroxypentanoic acid]
PERCENTAGE OF CELL PROLIFERATION ([1]; 0.1 nM): 96.00% | PERCENTAGE OF CELL PROLIFERATION ([1]; 1 nM): 104.00% | PERCENTAGE OF CELL PROLIFERATION ([1]; 10 nM): 87.00% | PERCENTAGE OF CELL PROLIFERATION ([1]; 100 nM): 35.00% | PERCENTAGE OF CELL PROLIFERATION ([1]; 1 000 nM): 20.00% | PERCENTAGE OF CELL PROLIFERATION ([1]; 10 000 nM): 10.00% | PERCENTAGE OF CELL PROLIFERATION ([1]; 100 000 nM): 2.00% | PERCENTAGE OF CELL PROLIFERATION ([2]; 0.1 nM): 71.00% | PERCENTAGE OF CELL PROLIFERATION ([2]; 1 nM): 76.00% | PERCENTAGE OF CELL PROLIFERATION ([2]; 10 nM): 71.00% | PERCENTAGE OF CELL PROLIFERATION ([2]; 100 nM): 56.00% | PERCENTAGE OF CELL PROLIFERATION ([2]; 1 000 nM): 36.00% | PERCENTAGE OF CELL PROLIFERATION ([2]; 10 000 nM): 22.00% | PERCENTAGE OF CELL PROLIFERATION ([2]; 100 000 nM): 7.00% | PERCENTAGE OF CELL PROLIFERATION ([3]; 0.1 nM): 71.00% | PERCENTAGE OF CELL PROLIFERATION ([3]; 1 nM): 76.00% | PERCENTAGE OF CELL PROLIFERATION ([3]; 10 nM): 77.00% | PERCENTAGE OF CELL PROLIFERATION ([3]; 100 nM): 52.00% | PERCENTAGE OF CELL PROLIFERATION ([3]; 1 000 nM): 29.00% | PERCENTAGE OF CELL PROLIFERATION ([3]; 10 000 nM): 18.00% | PERCENTAGE OF CELL PROLIFERATION ([3]; 100 000 nM): 4.00% | PERCENTAGE OF CELL PROLIFERATION ([4]; 0.1 nM): 91.51% | PERCENTAGE OF CELL PROLIFERATION ([4]; 1 nM): 97.94% | PERCENTAGE OF CELL PROLIFERATION ([4]; 10 nM): 89.28% | PERCENTAGE OF CELL PROLIFERATION ([4]; 100 nM): 67.32% | PERCENTAGE OF CELL PROLIFERATION ([4]; 1 000 nM): 31.51% | PERCENTAGE OF CELL PROLIFERATION ([4]; 10 000 nM): 19.78% | PERCENTAGE OF CELL PROLIFERATION ([4]; 100 000 nM): 3.65% | PERCENTAGE OF CELL PROLIFERATION ([5]; 0.1 nM): 93.00% | PERCENTAGE OF CELL PROLIFERATION ([5]; 1 nM): 92.00% | PERCENTAGE OF CELL PROLIFERATION ([5]; 10 nM): 91.00% | PERCENTAGE OF CELL PROLIFERATION ([5]; 100 nM): 60.00% | PERCENTAGE OF CELL PROLIFERATION ([5]; 1 000 nM): 39.00% | PERCENTAGE OF CELL PROLIFERATION ([5]; 10 000 nM): 15.00% | PERCENTAGE OF CELL PROLIFERATION ([5]; 100 000 nM): 3.00% | PERCENTAGE OF CELL PROLIFERATION ([6]; 0.1 nM): 96.00% | PERCENTAGE OF CELL PROLIFERATION ([6]; 1 nM): 79.00% | PERCENTAGE OF CELL PROLIFERATION ([6]; 10 nM): 89.00% | PERCENTAGE OF CELL PROLIFERATION ([6]; 100 nM): 17.00% | PERCENTAGE OF CELL PROLIFERATION ([6]; 1 000 nM): 6.00% | PERCENTAGE OF CELL PROLIFERATION ([6]; 10 000 nM): 5.00% | PERCENTAGE OF CELL PROLIFERATION ([6]; 100 000 nM): 2.00% | PERCENTAGE OF CELL PROLIFERATION ([7]; 0.1 nM): 111.00% | PERCENTAGE OF CELL PROLIFERATION ([7]; 1 nM): 87.00% | PERCENTAGE OF CELL PROLIFERATION ([7]; 10 nM): 103.00% | PERCENTAGE OF CELL PROLIFERATION ([7]; 100 nM): 63.00% | PERCENTAGE OF CELL PROLIFERATION ([7]; 1 000 nM): 42.00% | PERCENTAGE OF CELL PROLIFERATION ([7]; 10 000 nM): 17.00% | PERCENTAGE OF CELL PROLIFERATION ([7]; 100 000 nM): 9.00%
